In patent publication US3931262A, “Hydrophilic and difficultly volatile biocidal triorganotin compounds” (priority 1972, dated 1976):

Legend:
[1] = test system: Aspergillus flavus CBS 12662; assay: Microbiological test; assay type: cell-based
Excerpt: (§1) In the test for microbiocidal activity the compounds listed hereinbelow yielded the values indicated in the following Table: No. Compound __________________________________________________________________________ 1 (n--C4 H9)3 Sn--S--CH2 --CH2 --COO.(CH 2 --CH2 --O--n H(n~9) 2 (C6 H5)3 Sn--S--(CH2)3 --SO3.Na CH3 .vertline. 3 --Sn--S--CH2 --CH2 --COO--(CH2 --CH2 --O)n.H(n ~9) .vertline. CH3 4 (n--C4 H9)3 Sn--S--CH2 --COO.H.N(CH2 CH2 OH)3 5 (n--C4 H9)3 Sn--S--(CH2)2 --COO.H.N(CH2 CH2 OH)3 6 (n--C4 H9)3 Sn--S--CH2 --CO.N(CH2 CH2 OH)2 __________________________________________________________________________

[2] = test system: Arizona paracolon 7:1.7,8; assay: Microbiological test; assay type: cell-based
Excerpt: as §1

[3] = test system: Corynebacterium diphteroides FUR; assay: Microbiological test; assay type: cell-based
Excerpt: as §1

Paecilomyces varioti CBS = assay: Microbiological test; assay type: cell-based
Excerpt: as §1

[4] = test system: Pseudomonas fluorescens NCTC 4755; assay: Microbiological test; assay type: cell-based
Excerpt: as §1

[5] = test system: Staphylococcus aureus SG 511 M6; assay: Microbiological test; assay type: cell-based
Excerpt: as §1

[6] = test system: Mycobacterium phlei CITM 61; assay: Microbiological test; assay type: cell-based
Excerpt: as §1

[7] = test system: Pullularia pullulans CBS 10767; assay: Microbiological test; assay type: cell-based
Excerpt: as §1

[8] = test system: Aspergillus niger ATCC 6275; assay: Microbiological test; assay type: cell-based
Excerpt: as §1

[9] = test system: Trichoderma viride CEB 3334.2; assay: Microbiological test; assay type: cell-based
Excerpt: as §1

Lenzites abietina CBS = assay: Microbiological test; assay type: cell-based
Excerpt: as §1

Sarcina ureae SMB 81 = assay: Microbiological test; assay type: cell-based
Excerpt: as §1

[10] = test system: Streptococcus agalactiae M100; assay: Microbiological test; assay type: cell-based
Excerpt: as §1

[11] = test system: Streptococcus faecalis NCTC 8619; assay: Microbiological test; assay type: cell-based
Excerpt: as §1

[12] = test system: Chaetomium globosum CBS 14851; assay: Microbiological test; assay type: cell-based
Excerpt: as §1

[13] = test system: Escherichia coli RP 45410; assay: Microbiological test; assay type: cell-based
Excerpt: as §1

[14] = test system: Stachybotrys atra CBS 32465; assay: Microbiological test; assay type: cell-based
Excerpt: as §1

Trichophyton gypseum CBS = assay: Microbiological test; assay type: cell-based
Excerpt: as §1

Fusarium spec. DAP = assay: Microbiological test; assay type: cell-based
Excerpt: as §1

Hefe DAP = assay: Microbiological test; assay type: cell-based
Excerpt: as §1

[15] = test system: Alternaria tenuis CBS 10426; assay: Microbiological test; assay type: cell-based
Excerpt: as §1

Hefe rot DAP = assay: Microbiological test; assay type: cell-based
Excerpt: as §1

[16] = test system: Penicillium funiculosum CEB 329631; assay: Microbiological test; assay type: cell-based
Excerpt: as §1

Salmonella pullorum VBIZ = assay: Microbiological test; assay type: cell-based
Excerpt: as §1

Pilz schwarzlich DAP = assay: Microbiological test; assay type: cell-based
Excerpt: as §1

[17] = test system: Polystictus versicolor EMPA61; assay: Microbiological test; assay type: cell-based
Excerpt: as §1

Poria vaporia CBS = assay: Microbiological test; assay type: cell-based
Excerpt: as §1

[18] = test system: Staphylococcus aureus SG 511; assay: Microbiological test; assay type: cell-based
Excerpt: as §1

Coniphora cerebella CBS = assay: Microbiological test; assay type: cell-based
Excerpt: as §1

[19] = test system: Pasteurella multocida K753; assay: Microbiological test; assay type: cell-based
Excerpt: as §1

[20] = test system: Penicillium expansum SMC 36; assay: Microbiological test; assay type: cell-based
Excerpt: as §1

[21] = test system: Bacillus subtilis NCTC 6460; assay: Microbiological test; assay type: cell-based
Excerpt: as §1

[22] = test system: Salmonella gallinarum VBIB; assay: Microbiological test; assay type: cell-based
Excerpt: as §1

[23] = test system: Escherichia coli NCTC 8195; assay: Microbiological test; assay type: cell-based
Excerpt: as §1

Candida albicans CBS = assay: Microbiological test; assay type: cell-based
Excerpt: as §1

Fusarium oxysporum CBS = assay: Microbiological test; assay type: cell-based
Excerpt: as §1

[24] = test system: Salmonella cholerae-suis VBIB; assay type: cell-based
Solubility in water = assay type: physicochemical
Excerpt: Solubility properties of tributyltin derivatives [formula]

[25] = in water / neutral medium / strongly acid or alkaline pH

| Compound | Activity range [1] | Activity range [2] | Activity range [3] | Activity range (Paecilomyces varioti CBS) | Activity range [4] | Activity range [5] | Activity range [6] | Activity range [7] | Activity range [8] | Activity range [9] | Activity range (Lenzites abietina CBS) | Activity range (Sarcina ureae SMB 81) | Activity range [10] | Activity range [11] | Activity range [12] | Activity range [13] | Activity range [14] | Activity range (Trichophyton gypseum CBS) | Activity range (Fusarium spec. DAP) | Activity range (Hefe DAP) | other results |
| --- | --- | --- | --- | --- | --- | --- | --- | --- | --- | --- | --- | --- | --- | --- | --- | --- | --- | --- | --- | --- | --- |
| O=S(=O)([O-])CCC[S][Sn]([c]1ccccc1)([c]1ccccc1)[c]1ccccc1.[Na+] [Compound 2, sodium S-triphenyl tin-γ-mercaptopropanesulphonate] | 30 ppm | > 300 ppm | 3 ppm | 10 ppm | > 300 ppm | 10 ppm | 3 ppm | 3 ppm | 30 ppm | 10 ppm | 100 ppm | 3 ppm | 3 ppm | 10 ppm | 10 ppm | 10 ppm | 10 ppm | 30 ppm | 30 ppm | 10 ppm | Activity range [15]: 10 ppm; Activity range (Hefe rot DAP): 10 ppm; Activity range [16]: 100 ppm; Activity range (Salmonella pullorum VBIZ): > 300 ppm; Activity range (Pilz schwarzlich DAP): 30 ppm; Activity range [17]: 30 ppm; Activity range (Poria vaporia CBS): 3 ppm; Activity range [18]: 3 ppm; Activity range (Coniphora cerebella CBS): 30 ppm; Activity range [19]: > 300 ppm; Activity range [20]: 30 ppm; Activity range [21]: 3 ppm; Activity range [22]: > 300 ppm; Activity range [23]: 30 ppm; Activity range (Candida albicans CBS): 30 ppm; Activity range (Fusarium oxysporum CBS): 10 ppm; Activity range [24]: > 300 ppm |
| CCC[CH2][Sn]([CH2]CCC)([CH2]CCC)[O][Sn]([CH2]CCC)([CH2]CCC)[CH2]CCC [TBTO, bis-(tri-n-butyltin)-oxide] |  |  |  |  |  |  |  |  |  |  |  |  |  |  |  |  |  |  |  |  | Solubility in water (Solubility in water; Table 1, comparison): 20 ppm; Solubility in water (in words) (Solubility in water; Table 1 and text): poor |
| CCC[CH2][Sn]([CH2]CCC)([CH2]CCC)[O]S(N)(=O)=O [tributyltin sulphaminate] |  |  |  |  |  |  |  |  |  |  |  |  |  |  |  |  |  |  |  |  | stability to hydrolysis (in words) [25]: hydrolytically split off in water at once |
| S-tri-n-butyl-tin-β-mercaptopropionic acid polyethylene glycol ester [Compound 1] | 30 ppm | > 300 ppm | 10 ppm | 30 ppm | 10 ppm | 10 ppm | 3 ppm | 10 ppm | 30 ppm | 100 ppm | 10 ppm | 10 ppm | 3 ppm | 10 ppm | 10 ppm | 10 ppm | 10 ppm | 30 ppm | 30 ppm | 10 ppm | Activity range [15]: 30 ppm; Activity range (Hefe rot DAP): 10 ppm; Activity range [16]: 30 ppm; Activity range (Salmonella pullorum VBIZ): > 300 ppm; Activity range (Pilz schwarzlich DAP): 10 ppm; Activity range [17]: 100 ppm; Activity range (Poria vaporia CBS): 100 ppm; Activity range [18]: 10 ppm; Activity range (Coniphora cerebella CBS): 10 ppm; Activity range [19]: 10 ppm; Activity range [20]: 30 ppm; Activity range [21]: 10 ppm; Activity range [22]: > 300 ppm; Activity range [23]: 10 ppm; Activity range (Candida albicans CBS): 30 ppm; Activity range (Fusarium oxysporum CBS): 30 ppm; Activity range [24]: > 300 ppm |
